# Measured values published in patent US9994570B2, “Bridged diazepane orexin receptor antagonists” (MERCK SHARP & DOHME CORP., priority 2014, dated 2018).
# pIC50: −log10 of the molar value.
# Assays:
# [1] = target: T1, rat orexin-1 receptor (Rattus norvegicus, UniProt P56718); assay: FLIPR Ca2+ flux assay, OX1R; assay type: cell-based; conditions: CHO cells expressing the rat orexin-1 receptor; agonist 70 pM Ala-6,12 orexin-A
# T1 construct: expressed in transfected cells; host or cells: CHO cells (grown under G418 selection)
# T1 sequence (P56718 1-416): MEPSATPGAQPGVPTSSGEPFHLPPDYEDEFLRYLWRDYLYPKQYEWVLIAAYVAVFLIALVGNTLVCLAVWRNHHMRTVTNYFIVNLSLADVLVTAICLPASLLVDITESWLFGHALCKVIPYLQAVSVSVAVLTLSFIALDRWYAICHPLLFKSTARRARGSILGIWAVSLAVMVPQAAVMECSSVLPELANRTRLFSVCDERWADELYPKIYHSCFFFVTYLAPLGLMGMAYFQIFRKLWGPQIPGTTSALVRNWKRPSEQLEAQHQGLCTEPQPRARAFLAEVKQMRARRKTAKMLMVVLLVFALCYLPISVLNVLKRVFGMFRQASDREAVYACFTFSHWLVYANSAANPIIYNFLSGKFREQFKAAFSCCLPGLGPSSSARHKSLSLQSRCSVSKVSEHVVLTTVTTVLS
# Experimental: (§1) The utility of the compounds in accordance with the present invention as orexin receptor OX1R and/or OX2R antagonists may be readily determined without undue experimentation by methodology well known in the art, including the “FLIPR Ca^2+ Flux Assay” (Okumura et al., Biochem. Biophys. Res. Comm. 280:976-981, 2001). In a typical experiment the OX1 and OX2 receptor antagonistic activity of the compounds of the present invention was determined in accordance with the following experimental method. For intracellular calcium measurements, Chinese hamster ovary (CHO) cells expressing the rat orexin-1 receptor or the human orexin-2 receptor, are grown in Iscove's modified DMEM containing 2 mM L-glutamine, […], 1% hypoxanthine-thymidine supplement, 100 U/ml penicillin, 100 μg/ml streptomycin and 10% heat-inactivated fetal calf serum (FCS). The cells are seeded at 20,000 cells/well into Becton-Dickinson black 384-well clear bottom sterile plates coated with poly-D-lysine. All reagents were from GIBCO-Invitrogen Corp. The seeded plates are incubated overnight at 37° C. and 5% CO2. Ala-6,12 human orexin-A as the agonist is prepared as a 1 mM stock solution in 1% bovine serum albumin (BSA) and diluted in assay buffer (HBSS containing 20 mM HEPES, 0.1% BSA and 2.5 mM probenecid, pH7.4) for use in the assay at a final concentration of 70 pM. Test compounds are prepared as 10 mM stock solution in DMSO, then diluted in 384-well plates, first in DMSO, then assay buffer. On the day of the assay, cells are washed 3 times with 100 μl assay buffer and then incubated for 60 min (37° C., 5% CO2) in 60 μl assay buffer containing 1 μM Fluo-4AM ester, 0.02% pluronic acid, and 1% BSA. The dye loading solution is then aspirated and cells are washed 3 times with 100 μl assay buffer. 30 μl of that same buffer is left in each well. Within the Fluorescent Imaging Plate Reader (FLIPR, Molecular Devices), test compounds are added to the plate in a volume of 25 μl, incubated for 5 min and finally 25 μl of agonist is added. Fluorescence is measured for each well at 1 second intervals for 5 minutes and the height of each fluorescence peak is compared to the height of the fluorescence peak induced by 70 pM Ala-6,12 orexin-A with buffer in place of antagonist. For each antagonist, IC50 value (the concentration of compound needed to inhibit 50% of the agonist response) is determined. Alternatively, compound potency can be assessed by a radioligand binding assay (described in Bergman et. al. Bioorg. Med. Chem. Lett. 2008, 18, 1425-1430) in which the inhibition constant (Ki) is determined in membranes prepared from CHO cells expressing either the OX1 or OX2 receptor. The intrinsic orexin receptor antagonist activity of a compound which may be used in the present invention may be determined by these assays.
# [2] = target: T2, human orexin-2 receptor (Homo sapiens, UniProt O43614); assay: FLIPR Ca2+ flux assay, OX2R; assay type: cell-based; conditions: for pIC50: CHO cells expressing the human orexin-2 receptor, agonist 70 pM Ala-6,12 orexin-A; for Fold Selective: OX1R FLIPR / OX2R FLIPR
# T2 construct: expressed in transfected cells; host or cells: CHO cells (grown under G418 selection)
# T2 sequence (O43614 1-444): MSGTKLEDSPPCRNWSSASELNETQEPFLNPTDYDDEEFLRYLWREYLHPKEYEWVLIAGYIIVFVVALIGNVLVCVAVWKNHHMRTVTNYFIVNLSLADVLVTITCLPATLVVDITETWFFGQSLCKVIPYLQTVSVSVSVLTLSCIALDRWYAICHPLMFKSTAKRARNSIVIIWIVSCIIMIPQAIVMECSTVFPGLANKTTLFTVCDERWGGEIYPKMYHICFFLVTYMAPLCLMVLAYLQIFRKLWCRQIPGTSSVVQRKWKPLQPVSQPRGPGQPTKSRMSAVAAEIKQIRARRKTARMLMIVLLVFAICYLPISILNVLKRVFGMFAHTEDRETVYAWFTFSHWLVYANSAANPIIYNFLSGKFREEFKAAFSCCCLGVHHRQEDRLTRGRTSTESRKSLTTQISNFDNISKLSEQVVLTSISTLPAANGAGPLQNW
# Experimental: as §1
pIC50 [1],pIC50 [2],Fold Selective [2],SMILES
< 5.00,7.24,>172,"Cc1cc(C)nc(N2CC3CC2CN(C(=O)c2cccnc2CC(F)(F)F)C3)n1 (stereo not drawn) [Example 32, 6-(4,6-dimethylpyrimidin-2-yl)-3-{[2-(2,2,2-trifluoroethyl)pyridin-3-yl]carbonyl}-3,6-diazabicyclo[3.2.1]octane]"
5.40,7.36,91,"COCCc1ccccc1C(=O)N1CC2CC(C1)N(c1nc(C)cc(C)n1)C2 (stereo not drawn) [Example 33, 6-(4,6-dimethylpyrimidin-2-yl)-3-{[2-(2-methoxyethyl)-phenyl]carbonyl}-3,6-diazabicyclo[3.2.1]octane]"
5.57,7.62,112,"Cc1cc(C)nc(N2CC3CC2CN(C(=O)c2ccccc2OC(F)F)C3)n1 (stereo not drawn) [Example 34, 3-{[2-(difluoromethoxy)phenyl]carbonyl}-6-(4,6-dimethylpyrimidin-2-yl)-3,6-diazabicyclo[3.2.1]octane]"
< 5.00,7.33,>213,"Cc1cc(C)nc(N2CC3CC2CN(C(=O)c2cccnc2C2CC2)C3)n1 (stereo not drawn) [Example 35, 3-[(2-cyclopropylpyridin-3-yl)carbonyl]-6-(4,6-dimethylpyrimidin-2-yl)-3,6-diazabicyclo[3.2.1]octane]"
5.68,7.82,139,"Cc1cc(C)nc(N2CC3CC2CN(C(=O)c2ccccc2CC(F)F)C3)n1 (stereo not drawn) [Example 36, 3-{[2-(2,2-difluoroethyl)phenyl]carbonyl}-6-(4,6-dimethylpyrimidin-2-yl)-3,6-diazabicyclo[3.2.1]octane]"
6.07,7.85,61,"Cc1cc(C)nc(N2CC3CC2CN(C(=O)c2ccccc2OCC(F)F)C3)n1 (stereo not drawn) [Example 37, 3-{[2-(2,2-difluoroethoxy)-phenyl]carbonyl}-6-(4,6-dimethylpyrimidin-2-yl)-3,6-diazabicyclo[3.2.1]octane]"
5.97,7.64,47,Cc1cc(C)nc(N2CC3CC2CN(C(=O)c2cccnc2OC2CCCC2)C3)n1 (stereo not drawn) [Example 38]
5.86,7.89,106,"Cc1cc(C)nc(N2CC3CC2CN(C(=O)c2cccnc2OCC2CC2)C3)n1 (stereo not drawn) [Example 39, 3-{[2-(cyclopropyl-methoxy)pyridin-3-yl]carbonyl}-6-(4,6-dimethylpyrimidin-2-yl)-3,6-diazabicyclo-[3.2.1]octane]"
6.19,7.80,41,"Cc1cc(C)nc(N2CC3CC2CN(C(=O)c2cccnc2OCC(C)C)C3)n1 (stereo not drawn) [Example 40, 6-(4,6-dimethyl-pyrimidin-2-yl)-3-{[2-(2-methylpropoxy)pyridin-3-yl]carbonyl}-3,6-diazabicyclo[3.2.1]octane]"
6.23,7.92,49,"Cc1cc(C)nc(N2CC3CC2CN(C(=O)c2cccnc2OCC2CC2(F)F)C3)n1 (stereo not drawn) [Example 41, 3-({2-[(2,2-difluorocyclopropyl)methoxy]pyridin-3-yl}carbonyl)-6-(4,6-dimethylpyrimidin-2-yl)-3,6-diazabicyclo[3.2.1]octane]"

# Continued, molecule first:
SMILES,pIC50 [1],pIC50 [2],Fold Selective [2]
"Cc1cc(C)nc(N2CC3CC2CN(C(=O)c2cccnc2OCC(F)(F)F)C3)n1 (stereo not drawn) [Example 22, 6-(4,6-dimethylpyrimidin-2-yl)-3-{[2-(2,2,2-trifluoroethoxy)pyridin-3-yl]carbonyl}-3,6-diazabicyclo[3.2.1]octane]",5.98,7.89,80
"Cc1cc(C)nc(N2CC3CC2CN(C(=O)c2cccnc2-c2noc(C)n2)C3)n1 (stereo not drawn) [Example 23, 6-(4,6-dimethylpyrimidin-2-yl)-3-{[2-(5-methyl-1,2,4-oxadiazol-3-yl)pyridin-3-yl]carbonyl}-3,6-diazabicyclo[3.2.1]octane]",< 5.00,6.99,>97
"Cc1cc(C)nc(N2CC3CC2CN(C(=O)c2cccc(F)c2C2CC2)C3)n1 (stereo not drawn) [Example 24, (2-cyclopropyl-3-fluorophenyl)(6-(4,6-dimethylpyrimidin-2-yl)-3,6-diazabicyclo[3.2.1]octan-3-yl)methanone]",6.13,7.77,44
"Cc1cc(C)nc(N2CC3CC2CN(C(=O)c2ccccc2CC(F)(F)F)C3)n1 (stereo not drawn) [Example 25, 6-(4,6-dimethylpyrimidin-2-yl)-3-{[2-(2,2,2-trifluoroethyl)phenyl]carbonyl}-3,6-diazabicyclo[3.2.1]octane]",5.69,7.77,119
"Cc1cc(C)nc(N2CC3CC2CN(C(=O)c2ccccc2OCC(F)(F)F)C3)n1 (stereo not drawn) [Example 26, 6-(4,6-dimethylpyrimidin-2-yl)-3-{[2-(2,2,2-trifluoroethoxy)-phenyl]carbonyl}-3,6-diazabicyclo[3.2.1]octane]",5.94,8.00,114
"CCCc1ccccc1C(=O)N1CC2CC(C1)N(c1nc(C)cc(C)n1)C2 (stereo not drawn) [Example 27, 6-(4,6-dimethylpyrimidin-2-yl)-3-[(2-propylphenyl)carbonyl]-3,6-diazabicyclo[3.2.1]octane]",5.93,7.85,84
"Cc1cc(C)nc(N2CC3CC2CN(C(=O)c2ccccc2CS(C)(=O)=O)C3)n1 (stereo not drawn) [Example 28, 6-(4,6-dimethylpyrimidin-2-yl)-3-({2-[(methylsulfonyl)methyl]phenyl}carbonyl)-3,6-diazabicyclo[3.2.1]octane]",< 5.00,7.33,>213
"Cc1cc(C)nc(N2CC3CC2CN(C(=O)c2ccccc2C2(C#N)CC2)C3)n1 (stereo not drawn) [Example 29, 1-(2-{[6-(4,6-dimethylpyrimidin-2-yl)-3,6-diazabicyclo[3.2.1]oct-3-yl]carbonyl}-phenyl)-cyclopropanecarbonitrile]",5.95,7.89,86
"COc1ccc(C(=O)N2CC3CC(C2)N(c2nc(C)cc(C)n2)C3)c(-n2nccn2)n1 (stereo not drawn) [Example 30, 6-(4,6-dimethylpyrimidin-2-yl)-3-{[6-methoxy-2-(2H-1,2,3-triazol-2-yl)pyridin-3-yl]carbonyl}-3,6-diazabicyclo[3.2.1]octane]",< 5.00,6.93,>85
"Cc1cc(C)nc(N2CC3CC2CN(C(=O)c2cccnc2-n2nccn2)C3)n1 (stereo not drawn) [Example 31, 6-(4,6-dimethylpyrimidin-2-yl)-3-{[2-(2H-1,2,3-triazol-2-yl)pyridin-3-yl]carbonyl}-3,6-diazabicyclo[3.2.1]octane]",< 5.00,7.05,>111
